Assay results reported in PubChem BioAssay (NCI).
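How tested: cells in 96-well plates exposed to compound for 48 hours at five concentrations. GI50 = concentration required for 50% inhibition of growth. Definition used: TGI = concentration required for complete inhibition of growth.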

Tests used:
Test in all cases: NCI tumour cell line growth inhibition, 48 h
ACHN renal = system: ACHN renal
EKVX NSCLC = system: EKVX NSCLC
HCC-2998 colon = system: HCC-2998 colon
HOP-62 NSCLC = system: HOP-62 NSCLC
HOP-92 NSCLC = system: HOP-92 NSCLC
KM12 colon = system: KM12 colon
MALME-3M melanoma = system: MALME-3M melanoma
MDA-N = system: MDA-N
NCI-H23 lung = system: NCI-H23 lung
OVCAR-4 ovarian = system: OVCAR-4 ovarian
OVCAR-8 ovarian = system: OVCAR-8 ovarian
RXF 393 renal = system: RXF 393 renal
SNB-19 CNS = system: SNB-19 CNS
SW-620 colon = system: SW-620 colon
UO-31 renal = system: UO-31 renal
RPMI-8226 leukemia = system: RPMI-8226 leukemia
SR leukemia = system: SR leukemia

Structure (SMILES) | TGI (ACHN renal) | TGI (EKVX NSCLC) | TGI (HCC-2998 colon) | TGI (HOP-62 NSCLC) | TGI (HOP-92 NSCLC) | TGI (KM12 colon) | TGI (MALME-3M melanoma) | TGI (MDA-N) | TGI (NCI-H23 lung) | TGI (OVCAR-4 ovarian) | TGI (OVCAR-8 ovarian) | TGI (RXF 393 renal) | TGI (SNB-19 CNS) | TGI (SW-620 colon) | TGI (UO-31 renal) | TGI (RPMI-8226 leukemia) | TGI (SR leukemia) | GI50 (SNB-19 CNS) | GI50 (SR leukemia) | GI50 (UO-31 renal)
Nc1nc(Cl)c(N)c(NCC2(CO)CCC(OCc3ccccc3)C2)n1 (configuration not stated) | > 100 µM | > 100 µM | > 100 µM | > 100 µM | > 100 µM | > 100 µM | > 100 µM | > 100 µM | > 100 µM | > 100 µM | > 100 µM | > 100 µM | > 100 µM | > 100 µM | > 100 µM | – | – | – | – | –
Cc1cc(Cl)ccc1NC(=O)/C(=N\NC(C)(C)C)C(C#N)c1nc(-c2ccc([N+](=O)[O-])cc2)cs1 (configuration not stated) | > 100 µM | > 100 µM | > 100 µM | > 100 µM | > 100 µM | > 100 µM | > 100 µM | – | > 100 µM | > 100 µM | > 100 µM | – | > 100 µM | > 100 µM | > 100 µM | > 100 µM | > 100 µM | – | – | –
CC(C(=O)NCNC(=O)c1ccccc1)C(=O)Nc1ccccc1 (configuration not stated) | > 100 µM | > 100 µM | – | – | > 100 µM | > 100 µM | > 100 µM | > 100 µM | > 100 µM | – | > 100 µM | > 100 µM | > 100 µM | > 100 µM | > 100 µM | > 100 µM | – | – | – | –
CCOC(=O)c1c(NC(=S)Nc2ccccc2)sc2c1CCN(C)C2 | > 100 µM | > 100 µM | – | > 100 µM | – | > 100 µM | – | > 100 µM | > 100 µM | – | > 100 µM | > 100 µM | > 100 µM | – | > 100 µM | > 100 µM | – | – | – | –
CN(C)CC1(C)CC/C(=C\c2ccc(Cl)cc2)C1=O (configuration not stated) | > 100 µM | – | > 100 µM | > 100 µM | > 100 µM | 80.3 µM | > 100 µM | – | > 100 µM | > 100 µM | > 100 µM | 82.1 µM | 65.2 µM | 35.5 µM | > 100 µM | 43.4 µM | – | – | – | –
COc1cc2c(c(OC)c1OC)-c1ccc(SC)c(=O)cc1[C@@H](NC(=O)c1cccc([N+](=O)[O-])c1)CC2 | > 100 µM | 27.3 µM | 0.0497 µM | 14.9 µM | – | > 100 µM | – | – | – | > 100 µM | – | – | – | > 100 µM | > 100 µM | – | 0.0732 µM | 0.0268 µM | 0.00851 µM | 0.0276 µM
CC(=O)OCC12CC(CC1OC(C)=O)c1ccccc12 (configuration not stated) | > 100 µM | – | > 100 µM | > 100 µM | > 100 µM | – | > 100 µM | – | > 100 µM | > 100 µM | > 100 µM | – | > 100 µM | > 100 µM | > 100 µM | > 100 µM | > 100 µM | – | – | –
COC(=O)C(Cc1nc2ccc(Cl)cc2[nH]c1=O)C(=O)C(=O)Nc1cc(C)ccc1C (configuration not stated) | > 100 µM | > 100 µM | > 100 µM | > 100 µM | – | > 100 µM | > 100 µM | – | > 100 µM | > 100 µM | > 100 µM | > 100 µM | > 100 µM | > 100 µM | > 100 µM | > 100 µM | > 100 µM | – | – | –
COc1ccc(OC2(c3cc(OC)ccc3OC)OC(=O)c3ccccc32)cc1 (configuration not stated) | > 100 µM | > 100 µM | > 100 µM | > 100 µM | > 100 µM | > 100 µM | > 100 µM | – | > 100 µM | > 100 µM | > 100 µM | > 100 µM | > 100 µM | > 100 µM | > 100 µM | > 100 µM | > 100 µM | – | – | –
O=S(Cc1ccccc1)c1ccccc1Cn1cccc1 (configuration not stated) | > 100 µM | > 100 µM | > 100 µM | > 100 µM | > 100 µM | > 100 µM | > 100 µM | – | > 100 µM | > 100 µM | – | > 100 µM | > 100 µM | > 100 µM | > 100 µM | > 100 µM | 83.4 µM | – | – | –
NC(=O)N/N=C(\CC1OC(=O)c2ccccc21)c1ccc([N+](=O)[O-])cc1 (configuration not stated) | > 100 µM | > 100 µM | 32.7 µM | 53.6 µM | – | 95.9 µM | 73.7 µM | – | – | > 100 µM | – | 28.9 µM | 51.6 µM | > 100 µM | > 100 µM | > 100 µM | > 100 µM | – | – | –
CCN(CC)CCCNc1ccc([N+](=O)[O-])c2nc3ccccc3c(N)c12 | – | 2.86 µM | – | > 10 µM | > 10 µM | 1.7 µM | > 10 µM | – | 2.76 µM | 1.94 µM | 4.51 µM | 1.52 µM | 5.5 µM | 2.04 µM | > 10 µM | 8.35 µM | 4.56 µM | – | – | –
CSc1nc(-c2ccccc2)[nH]c(=O)n1 | > 100 µM | > 100 µM | > 100 µM | > 100 µM | > 100 µM | > 100 µM | > 100 µM | – | > 100 µM | > 100 µM | > 100 µM | > 100 µM | > 100 µM | > 100 µM | > 100 µM | > 100 µM | – | – | – | –
CC(=O)C1C(=O)C(=O)N(c2ccc([N+](=O)[O-])cc2[N+](=O)[O-])C1=O (configuration not stated) | > 100 µM | > 100 µM | > 100 µM | > 100 µM | > 100 µM | > 100 µM | – | – | > 100 µM | > 100 µM | > 100 µM | > 100 µM | > 100 µM | > 100 µM | > 100 µM | – | – | – | – | –
COc1ccc2c(=O)c3ccoc3[nH]c2c1 | > 100 µM | > 100 µM | > 100 µM | > 100 µM | > 100 µM | > 100 µM | – | – | > 100 µM | > 100 µM | > 100 µM | > 100 µM | > 100 µM | > 100 µM | > 100 µM | > 100 µM | > 100 µM | – | – | –
CCOC(=O)C(=[N+]=[N-])C(=O)CSC#N | 55.3 µM | > 100 µM | – | > 100 µM | – | > 100 µM | > 100 µM | > 100 µM | > 100 µM | > 100 µM | > 100 µM | > 100 µM | > 100 µM | > 100 µM | > 100 µM | – | – | – | – | –
